We go through 3 substances from patent US20120083522A1, “MODULATION OF INFLAMMATORY RESPONSES BY FACTOR XI” (Isis Pharmaceuitcals, inc., priority 2009, published 2012).

The nature of data set [1]: Tolerability in Sprague-Dawley rats: body and organ weight (Example 19). Particulars: 50 mg/kg s.c. twice per week for 6 weeks, change over weight at start of study. Type of data set: in vivo. From the text: Urine samples were taken before the start of treatment.
The body weights are presented in Table 78 and are expressed as a percent change over the weights taken at the start of the study.

Data set [2] deals with human Factor XI mRNA. Nature of the data set: Dose-dependent inhibition in HepB3 cells, lipofectin (Example 7). Type of data set: cell-based. Particulars: approx. 16 h. The procedure:
Cells were plated at a density of 4,000 cells per well and transfected using lipofectin reagent with 2.3 nM, 4.7 nM, 9.4 nM, 18.75 nM, 37.5 nM, and 75 nM concentrations of antisense oligonucleotide, as specified in Table 14. After a treatment period of approximately 16 hours, RNA was isolated from the cells and human Factor XI mRNA levels were measured by quantitative real-time PCR. Human Factor XI primer probe set RTS 2966 was used to measure mRNA levels. Factor XI mRNA levels were adjusted according to total RNA content, as measured by RIBOGREEN®. Results are presented as percent inhibition of Factor XI, relative to untreated control cells.

In data set [3] the test system is human Factor XI mRNA. Nature of the data set: Antisense inhibition in HepG2 cells by microwalk gapmers, 75 nM, lipofectin (Example 3). In kind it is cell-based. The note with it: HepG2 cells, 75 nM, oligonucleotides targeted to nucleobases 1275 to 1318 of SEQ ID NO: 1. In a few lines:
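HepG2 cells (10,000 per well) were transfected with 75 nM gapmer using lipofectin and treated for about 24 h. Factor XI mRNA was quantified by real-time PCR, normalized to RiboGreen total RNA and expressed as percent inhibition versus untreated controls.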

The subject of data set [4] is human Factor XI mRNA. Nature of the data set: Dose-dependent inhibition in HepB3 cells, electroporation (Example 7). In kind it is cell-based. Particulars: approx. 16 h. Here is the method:
The gapmers were also transfected via electroporation and their dose dependent inhibition of human Factor XI mRNA was measured. Cells were plated at a density of 20,000 cells per well and transfected via electroporation with 41.15 nM, 123.457 nM, 370.37 nM, 1111.11 nM, 3333.33 nM, and 10,000 nM concentrations of antisense oligonucleotide, as specified in Table 15. After a treatment period of approximately 16 hours, RNA was isolated from the cells and human Factor XI mRNA levels were measured by quantitative real-time PCR. Human Factor XI primer probe set RTS 2966 was used to measure mRNA levels. Factor XI mRNA levels were adjusted according to total RNA content, as measured by RIBOGREEN®. Results are presented as percent inhibition of human Factor XI, relative to untreated control cells.

The test system of data set [5] is human Factor XI mRNA. Description: Dose-dependent inhibition in cyno primary hepatocytes, electroporation (Example 6). Type of data set: cell-based, cynomolgus monkey. The note with it: approx. 16 h. The procedure: Cells were plated at a density of 35,000 cells per well and transfected via electroporation with 0.74 nM, 2.2 nM, 6.7 nM, 20 nM, 60 nM, and 180 nM concentrations of antisense oligonucleotide, as specified in Table 13. After a treatment period of approximately 16 hours, RNA was isolated from the cells and human Factor XI mRNA levels were measured by quantitative real-time PCR. Human Factor XI primer probe set RTS 2966 was used to measure mRNA levels. Factor XI mRNA levels were adjusted according to total RNA content, as measured by RIBOGREEN®. Results are presented as percent inhibition of human Factor XI, relative to untreated control cells.

In the case of “416850 (antisense TGCACAGTTTCTGGCAGGCC; 5-10-5 gapmer, wing sugar chemistry not given here, further chemistry not given here) [compound 416850]”, in data set [1], the “Percent change in Body weight” value was −33%. The “percent inhibition of human Factor XI mRNA” value (from here on “percent inhibition”) in the data set on human Factor XI mRNA [2] (2.3 nM) worked out at 22%; in the data set on human Factor XI mRNA [2] (4.7 nM), 32%; with human Factor XI mRNA [2] (9.4 nM), 43%; with human Factor XI mRNA [2] (18.75 nM), 56%; in the data set on human Factor XI mRNA [2] (37.5 nM), 75%; in the data set with human Factor XI mRNA [2] (75 nM), 60%. For the same substance, the “percent inhibition” value in the data set on human Factor XI mRNA [4] (41.15 nM) was 26%; with human Factor XI mRNA [4] (123.457 nM), 38%; in the data set on human Factor XI mRNA [4] (370.37 nM), 51%; in the data set on human Factor XI mRNA [4] (1111.11 nM) it was 73%; with human Factor XI mRNA [4] (3333.33 nM), 90%; with human Factor XI mRNA [4] (10000 nM) it was 95%. The “percent inhibition” value worked out at 2% with human Factor XI mRNA [5] (0.74 nM); 20% with human Factor XI mRNA [5] (2.2 nM); 24% in the data set on human Factor XI mRNA [5] (6.7 nM); 65% in the data set on human Factor XI mRNA [5] (20 nM); 69% in the data set with human Factor XI mRNA [5] (60 nM); 67% in the data set with human Factor XI mRNA [5] (180 nM). In the data set with human Factor XI mRNA [3], the “% inhibition of human Factor XI mRNA levels” value is reported as 93%.
Turning to “416925 (antisense GGTGCACAGTTTCTGGCAGG; 3-14-3 chimeric gapmer, wing sugar chemistry not given here, further chemistry not given here) [compound 416925]”, the “Percent change in Body weight” value in data set [1] is −32%. The “percent inhibition” value in the data set on human Factor XI mRNA [2] (2.3 nM) turned out to be 26%; in the data set on human Factor XI mRNA [2] (4.7 nM), 33%; in the data set with human Factor XI mRNA [2] (9.4 nM), 45%; with human Factor XI mRNA [2] (18.75 nM), 59%; in the data set on human Factor XI mRNA [2] (37.5 nM), 72%; in the data set with human Factor XI mRNA [2] (75 nM), 60%. Moreover, the “percent inhibition” value is 27% in the data set on human Factor XI mRNA [4] (41.15 nM); 39% with human Factor XI mRNA [4] (123.457 nM); 50% with human Factor XI mRNA [4] (370.37 nM); 73% in the data set with human Factor XI mRNA [4] (1111.11 nM); 88% with human Factor XI mRNA [4] (3333.33 nM); 96% in the data set on human Factor XI mRNA [4] (10000 nM). Moreover, the “percent inhibition” value worked out at 0% in the data set with human Factor XI mRNA [5] (0.74 nM); 9% with human Factor XI mRNA [5] (2.2 nM); 1% in the data set on human Factor XI mRNA [5] (6.7 nM); 48% in the data set on human Factor XI mRNA [5] (20 nM); 55% with human Factor XI mRNA [5] (60 nM); 76% in the data set on human Factor XI mRNA [5] (180 nM). The “% inhibition of human Factor XI mRNA levels” value in the data set with human Factor XI mRNA [3] was determined as 98%.
For the substance “416825 (antisense GCCCTTCATGTCTAGGTCCA; 5-10-5 gapmer, wing sugar chemistry not given here, further chemistry not given here) [compound 416825]”, in data set [1], the “Percent change in Body weight” value was −18%. The “percent inhibition” value in the data set on human Factor XI mRNA [2] (2.3 nM) stood at 0%; in the data set on human Factor XI mRNA [2] (4.7 nM), 15%; with human Factor XI mRNA [2] (9.4 nM), 34%; in the data set with human Factor XI mRNA [2] (18.75 nM) it was 36%; in the data set with human Factor XI mRNA [2] (37.5 nM) it was 53%; in the data set with human Factor XI mRNA [2] (75 nM), 59%. Further, the “percent inhibition” value turned out to be 32% in the data set with human Factor XI mRNA [4] (41.15 nM); 40% in the data set on human Factor XI mRNA [4] (123.457 nM); 48% with human Factor XI mRNA [4] (370.37 nM); 75% in the data set on human Factor XI mRNA [4] (1111.11 nM); 90% with human Factor XI mRNA [4] (3333.33 nM); 92% in the data set with human Factor XI mRNA [4] (10000 nM). Besides, the “percent inhibition” value was determined as 5% in the data set with human Factor XI mRNA [5] (0.74 nM); 22% in the data set with human Factor XI mRNA [5] (2.2 nM); 51% in the data set with human Factor XI mRNA [5] (6.7 nM); 61% with human Factor XI mRNA [5] (20 nM); 77% with human Factor XI mRNA [5] (60 nM); 84% with human Factor XI mRNA [5] (180 nM).
